# From US20230102554A1 (GB002, INC., priority 2019, published 2023)
# Structures can show the parent of a compound that is named as a salt.
# Key:
# [1] = biological target: T1, Human PDGFRβ, cytoplasmic domain (GST-PDGFRβ) (Homo sapiens, UniProt P09619); assay: Human PDGFRβ biochemical inhibition assay (off-chip Mobility Shift Assay)
# T1 construct: made in house
# Outline: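 GST-tagged cytoplasmic domain (aa 557-1106) from baculovirus was incubated 1 h at room temperature with compound, CSKtide, ATP at Km and Mg²⁺ in HEPES buffer, pH 7.5. Phosphorylated and unphosphorylated peptide were separated by off-chip mobility shift, and the product ratio P/(P+S) gave percent inhibition.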
# [2] = biological target: T2, Human PDGFRα, cytoplasmic domain (GST-PDGFRα) (Homo sapiens, UniProt P16234); assay: Human PDGFRα biochemical inhibition assay (off-chip Mobility Shift Assay)
# T2 construct: made in house
# T2 sequence (P16234 550-1089 T674I): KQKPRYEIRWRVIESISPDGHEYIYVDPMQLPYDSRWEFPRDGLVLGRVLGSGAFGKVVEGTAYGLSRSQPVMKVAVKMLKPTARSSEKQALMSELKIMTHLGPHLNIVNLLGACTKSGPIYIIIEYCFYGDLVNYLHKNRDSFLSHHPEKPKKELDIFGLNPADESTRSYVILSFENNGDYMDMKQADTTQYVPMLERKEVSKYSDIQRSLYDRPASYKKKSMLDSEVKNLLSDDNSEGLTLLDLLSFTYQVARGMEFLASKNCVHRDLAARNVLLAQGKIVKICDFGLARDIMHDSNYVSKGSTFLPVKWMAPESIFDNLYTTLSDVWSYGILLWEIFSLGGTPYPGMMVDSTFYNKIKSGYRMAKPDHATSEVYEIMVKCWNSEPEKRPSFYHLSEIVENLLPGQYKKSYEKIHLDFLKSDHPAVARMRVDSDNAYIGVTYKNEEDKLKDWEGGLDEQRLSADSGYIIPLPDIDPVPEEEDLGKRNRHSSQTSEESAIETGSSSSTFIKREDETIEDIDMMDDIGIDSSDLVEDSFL
# T1 sequence (P09619 with tags, fused parts or gaps): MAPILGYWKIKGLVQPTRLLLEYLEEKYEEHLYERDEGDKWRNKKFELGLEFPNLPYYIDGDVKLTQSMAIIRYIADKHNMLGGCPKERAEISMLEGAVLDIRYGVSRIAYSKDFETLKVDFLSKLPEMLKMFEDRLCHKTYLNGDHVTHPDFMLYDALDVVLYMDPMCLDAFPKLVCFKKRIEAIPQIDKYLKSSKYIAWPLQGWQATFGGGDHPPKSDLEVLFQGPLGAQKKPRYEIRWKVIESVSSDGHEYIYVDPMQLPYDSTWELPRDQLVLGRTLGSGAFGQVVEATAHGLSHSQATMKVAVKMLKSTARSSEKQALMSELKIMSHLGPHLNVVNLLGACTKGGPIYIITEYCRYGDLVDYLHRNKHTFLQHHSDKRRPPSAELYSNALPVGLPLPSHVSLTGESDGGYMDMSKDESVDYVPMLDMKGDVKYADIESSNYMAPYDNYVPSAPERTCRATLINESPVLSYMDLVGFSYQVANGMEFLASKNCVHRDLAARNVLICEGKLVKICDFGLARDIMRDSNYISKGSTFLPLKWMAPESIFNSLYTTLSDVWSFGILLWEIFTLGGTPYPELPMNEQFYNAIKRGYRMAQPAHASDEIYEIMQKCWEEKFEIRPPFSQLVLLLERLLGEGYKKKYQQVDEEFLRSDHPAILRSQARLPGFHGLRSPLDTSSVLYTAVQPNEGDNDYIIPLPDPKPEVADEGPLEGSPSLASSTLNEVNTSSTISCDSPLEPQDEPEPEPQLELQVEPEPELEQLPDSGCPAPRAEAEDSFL
IC50 [1] [nM],IC50 [2] [nM],SMILES
< 300,< 300,"CCn1cc2ncc(N[C@@H](C)c3cc(NC(=O)Cc4ccccc4F)ccc3C)nc2n1 [Compound 700, (S)-N-(3-(1-((2-ethyl-2H-pyrazolo[3,4-b]pyrazin-6-yl)amino)ethyl)-4-methylphenyl)-2-(2-fluorophenyl)acetamide]"
< 300,< 300,"Cc1cncc(C(=O)Nc2cccc([C@H](C)Nc3cnc4ccccc4n3)c2)c1 [Compound 4, (5)-5-methyl-N-(3-(1-(quinoxalin-2-ylamino)ethyl)phenyl)nicotinamide trifluoroacetate]"
< 300,< 300,"Cc1cncc(C(=O)Nc2cc(F)cc([C@H](C)Nc3cnc4cnn(C)c4n3)c2)c1 [Compound 171, (S)-N-(3-fluoro-5-(1-((1-methyl-1H-pyrazolo[3,4-b]pyrazin-6-yl)amino)ethyl)phenyl)-5-methylnicotinamide]"
300 to 1000,300 to 1000,"CCn1cc2ncc(N[C@@H](C)c3cccc(NC(=O)c4ccc(C(F)(F)F)nc4)c3)nc2n1 [Compound 284, (S)-N-(3-(1-((2-ethyl-2H-pyrazolo[3,4-b]pyrazin-6-yl)amino)ethyl)phenyl)-6-(trifluoromethyl)nicotinamide]"
< 300,< 300,"CCn1cc2ncc(N[C@@H](C)c3cccc(NC(=O)Cc4cc(C)cc(F)c4)c3)nc2n1 [Compound 639, (S)-N-(3-(1-((2-ethyl-2H-pyrazolo[3,4-b]pyrazin-6-yl)amino)ethyl)phenyl)-2-(3-fluoro-5-methylphenyl) acetamide]"
< 300,< 300,"CC(C)c1cc(C(=O)Nc2cccc([C@H](C)Nc3cnc4cnn(C)c4n3)c2)n(C)n1 [Compound 165, (S)-3-isopropyl-1-methyl-N-(3-(1-((1-methyl-1H-pyrazolo[3,4-6]pyrazin-6-yl)amino)ethyl)phenyl)-1H-pyrazole-5-carboxamide]"
< 300,< 300,"CCn1cc2ncc(N[C@@H](C)c3cc(NC(=O)c4ccc(OC5CCN(C)CC5)c(C)c4)ccc3F)nc2n1 [Compound 447, (S)-N-(3-(1-((2-ethyl-2H-pyrazolo[3,4-b]pyrazin-6-yl)amino)ethyl)-4-fluorophenyl)-3-methyl-4-((1-methylpiperidin-4-yl)oxy)benzamide]"
< 300,< 300,"CC(C)n1cc(C(=O)Nc2cccc([C@H](C)Nc3cnc4[nH]cc(-c5cnn(C)c5)c4n3)c2)cn1 [Compound 588, (S)-1-isopropyl-N-(3-(1-((7-(1-methyl-1H-pyrazol-4-yl)-5H-pyrrolo[2,3-b]pyrazin-2-yl)amino)ethyl)phenyl)-1H-pyrazole-4-carboxamide]"
< 300,< 300,"C[C@H](Nc1cnc2cnn(C)c2n1)c1cccc(NC(=O)c2ccc3c(c2)SCCN3)c1 [Compound 79, (S)-N-(3-(1-((1-methyl-1H-pyrazolo[3,4-d]pyrazin-6-yl)amino)ethyl)phenyl)-3,4-dihydro-2H-benzo[b] [1,4]thiazine-7-carboxamide]"
< 300,< 300,"CCn1cc2ncc(N[C@@H](C)c3cc(NC(=O)c4ccc(CN5CCCC5)c(C(F)(F)F)c4)ccc3F)nc2n1 [Compound 443, (S)-N-(3-(1-((2-ethyl-2H-pyrazolo[3,4-b]pyrazin-6-yl)amino)ethyl)-4-fluorophenyl)-4-(pyrrolidin-1-ylmethyl)-3-(trifluoromethyl)benzamide]"
≥ 1000,≥ 1000,"Cc1cncc(C(=O)Nc2cccc([C@H](C)Nc3cncc4c3c(C)nn4-c3cnn(C)c3)c2)c1 [Compound 751, (S)-5-methyl-N-(3-(1-((3-methyl-1-(1-methyl-1H-pyrazol-4-yl)-1H-pyrazolo[3,4-c]pyridin-4-yl)amino)ethyl)phenyl)nicotinamide]"
< 300,< 300,"CCn1cc2ncc(N[C@@H](C)c3cccc(NC(=O)c4ccc(C(F)(F)F)c(OC)c4)c3)nc2n1 [Compound 440, (S)-N-(3-(1-((2-ethyl-2H-pyrazolo[3,4-b]pyrazin-6-yl)amino)ethyl)phenyl)-3-methoxy-4-(trifluoromethyl) benzamide]"
< 300,< 300,"CCn1cc2ncc(N[C@@H](C)c3cc(NC(=O)c4ccc(N5CCN(C)CC5)c(C(F)(F)F)c4)ccc3F)nc2n1 [Compound 433, (S)-N-(3-(1-((2-ethyl-2H-pyrazolo[3,4-b]pyrazin-6-yl)amino)ethyl)-4-fluorophenyl)-4-(4-methylpiperazin-1-yl)-3-(trifluoromethyl)benzamide]"
≥ 1000,300 to 1000,"CCn1cc2ncc(N[C@@H](C)c3cccc(NC(=O)Cc4cccnc4)c3)nc2n1 [Compound 624, (S)-N-(3-(1-((2-ethyl-2H-pyrazolo[3,4-b]pyrazin-6-yl)amino)ethyl)phenyl)-2-(pyridin-3-yl)acetamide]"
≥ 1000,< 300,"Cc1cncc(C(=O)Nc2cccc([C@H](C)Nc3cnc4cnn(C5CCOC5)c4n3)c2)c1 (stereo partly drawn) [Compound 182, 5-methyl-N-(3-((1S)-1-((1-(tetrahydrofuran-3-yl)-1H-pyrazolo[3,4-b]pyrazin-6-yl)amino)ethyl)phenyl) nicotinamide]"
< 300,< 300,"Cc1cncc(C(=O)Nc2cccc([C@H](C)Nc3cnc4[nH]nc(C)c4c3)c2)c1 [Compound 14, (S)-5-methyl-N-(3-(1-((3-methyl-1H-pyrazolo[3,4-b]pyridin-5-yl)amino)ethyl)phenyl)nicotinamide]"

# Second part, the molecule before the results:
SMILES,IC50 [1] [nM],IC50 [2] [nM]
"C[C@H](Nc1cnc2cnn(C)c2n1)c1cccc(NC(=O)c2cnn(C)c2)c1 [Compound 146, (S)-1-methyl-N-(3-(1-((1-methyl-1H-pyrazolo[3,4-b]pyrazin-6-yl)amino)ethyl)phenyl)-1H-pyrazole-4-carboxamide]",≥ 1000,300 to 1000
"CCNc1ncc(C(=O)Nc2cccc([C@H](C)Nc3cnc4cn(CC)nc4n3)c2)cc1Cl [Compound 420, (S)-5-chloro-N-(3-(1-((2-ethyl-2H-pyrazolo[3,4-b]pyrazin-6-yl)amino)ethyl)phenyl)-6-(ethylamino)nicotinamide]",< 300,< 300
"Cc1cc(C(=O)Nc2cccc([C@H](C)Nc3cnc4cnn(C)c4n3)c2)cnc1N1CC2(COC2)C1 [Compound 259, (S)-5-methyl-N-(3-(1-((1-methyl-1H-pyrazolo[3,4-b]pyrazin-6-yl)amino)ethyl)phenyl)-6-(2-oxa-6-azaspiro[3.3]heptan-6-yl) nicotinamide]",< 300,< 300
"CCn1cc2ncc(N[C@@H](C)c3cccc(NC(=O)c4ccc(NC)nc4)c3)nc2n1 [Compound 393, (S)-N-(3-(1-((2-ethyl-2H-pyrazolo[3,4-b]pyrazin-6-yl)amino)ethyl)phenyl)-6-(methylamino)nicotinamide]",≥ 1000,300 to 1000
"CCn1cc2ncc(N[C@@H](C)c3cccc(NC(=O)c4ccc(OC(F)F)c(Cl)c4)c3)nc2n1 [Compound 450, (S)-3-chloro-4-(difluoromethoxy)-N-(3-(1-((2-ethyl-2H-pyrazolo[3,4-b]pyrazin-6-yl)amino)ethyl)phenyl)benzamide]",< 300,< 300
"CCn1cc2ncc(N[C@@H](C)c3cc(NC(=O)Cc4ccc(Cl)c(C)n4)ccc3C)nc2n1 [Compound 670, (S)-2-(5-chloro-6-methylpyridin-2-yl)-N-(3-(1-((2-ethyl-2H-pyrazolo[3,4-b]pyrazin-6-yl)amino)ethyl)-4-methylphenyl)acetamide]",< 300,< 300
"CC(C)n1ccc(C(=O)Nc2cccc([C@H](C)Nc3cnc4cnn(C)c4n3)c2)n1 [Compound 156, (S)-1-isopropyl-N-(3-(1-((1-methyl-1H-pyrazolo[3,4-b]pyrazin-6-yl)amino)ethyl)phenyl)-1H-pyrazole-3-carboxamide]",< 300,< 300
"CSc1ccc(C(=O)Nc2cccc([C@H](C)Nc3cnc4cnn(C)c4n3)c2)cc1 [Compound 219, (S)-N-(3-(1-((1-methyl-1H-pyrazolo[3,4-b]pyrazin-6-yl)amino)ethyl)phenyl)-4-(methylthio)benzamide]",< 300,< 300
"Cc1cncc(C(=O)Nc2cccc([C@H](C)Nc3cnc4cnn(-c5ccccn5)c4n3)c2)c1 [Compound 272, (S)-5-methyl-N-(3-(1-((1-(pyridin-2-yl)-1H-pyrazolo[3,4-b]pyrazin-6-yl)amino)ethyl)phenyl)nicotinamide]",< 300,< 300
"CC1OC(=O)c2ccc(C(=O)Nc3cccc([C@H](C)Nc4cnc5cnn(C)c5n4)c3)cc21 (stereo partly drawn) [Compound 76, 3-methyl-N-(3-((S)-1-((1-methyl-N-pyrazolo[3,4-b]pyrazin-6-yl)amino)ethyl)phenyl)-1-oxo-1,3-dihydroisobenzofuran-5-carboxamide]",< 300,< 300
"CCn1cc2ncc(N[C@@H](C)c3cccc(NC(=O)Cc4ccc(C(F)(F)F)cn4)c3)nc2n1 [Compound 688, (S)-N-(3-(1-((2-ethyl-2H-pyrazolo[3,4-b]pyrazin-6-yl)amino)ethyl)phenyl)-2-(5-(trifluoromethyl)pyridin-2-yl) acetamide]",≥ 1000,< 300
"CCn1cc2ncc(N[C@@H](C)c3cc(NC(=O)c4cnc(C(F)(F)F)s4)ccc3F)nc2n1 [Compound 308, (S)-N-(3-(1-((2-ethyl-2H-pyrazolo[3,4-b]pyrazin-6-yl)amino)ethyl)-4-fluorophenyl)-2-(trifluoromethyl)thiazole-5-carboxamide]",< 300,< 300
"CC[C@H](Nc1cnc2cn(CC)nc2n1)c1cccc(NC(=O)c2cncc(C)c2)c1 [Compound 408, (S)-N-(3-(1-((2-ethyl-2H-pyrazolo[3,4-b]pyrazin-6-yl)amino)propyl)phenyl)-5-methylnicotinamide]",≥ 1000,300 to 1000
